The source of these data is patent publication US11795439B2, “Methods for reprogramming cells and uses thereof” (GENESIS TECHNOLOGIES LIMITED, priority 2009, dated 2023).

What all share (assay type): cell-based, human
Experiment [1] concerns fibroblast cells. In words: Immunohistochemistry (Cellomics) % Sox2 and nestin positive cells with or without cytochalasin B (Table 4). The following applies: disrupting the cell cytoskeleton. How it is done:
Cells were fixed with a 4% formaldehyde/PBS solution for 10 min at room temperature and subsequently permeabilized for 5 min with 0.1% Triton X-100™ in 4% formaldehyde/PBS. After two brief washes with PBS, unspecific antibody binding was blocked by a 30 min incubation with 5% normal goat serum in PBS. Then primary antibodies were added in 5% normal goat serum/PBS as follows: Mouse anti-Nestin (1:100, BD) as an […] present in neural stem cells and mouse anti-NCAM (1:100, Neuromics) as neuronal adhesion molecule. After a 2 h incubation the cells were washed 4 times for 5 min each with 0.1% Tween™/PBS. Appropriate fluorescence-tagged secondary antibody was used for visualization; Goat anti-mouse 546 (1:200, invitrogen) prepared in 5% normal goat serum/PBS was used. […] Fluorescence images were taken with a Cellomics™ ArrayScan HCS Reader microscopy system. To determine an estimate of the percentage of cells adopting neuronal or glial phenotypes, random fields were selected and for each field the total number of cells (as determined by counting Hoechst stained nuclei) and the total number of cells positive for neuronal or glial markers were determined.
Various combinations of neurogenic regulators and cytokines for epigenetic modifications were tested to ascertain their effect on reprogramming efficiency. […] Cells were then analyzed for neural stem cell markers. […]

Experiment [2] concerns fibroblast cells within CDM. The experiment is described as follows: Trans-differentiation of cells within CDM by cytochalasin B, VPA, 5-Azacytidine, immunohistochemistry. To be noted: Day 14 CDM; cytochalasin B and NbActive medium only. How it is done:
Fibroblast cells were cultured in DMEM medium in the presence of 10% FCS as described in Example I, followed by seeding onto 12-well plates pre-coated with laminin ([…]) at a concentration of 2×10^6 cells/ml in defined CDM Medium consisting of a 3:1 ratio of Dulbecco's modified Eagle medium (DMEM, high glucose (4.5 g/L) with L-glutamine and sodium pyruvate) and Ham's F-12 medium supplemented with the following components: EGF (4.2×10^−10M), bFGF (2.8×10^−10M), ITS (8.6×10^−5M), dexamethasone (1.0×10^−7M), L-ascorbic acid phosphate magnesium salt n-hydrate (3.2×10^−4M), L-3,3′,5-triiodothyronine (2.0×10^−10M), ethanolamine (10^−4M), GlutaMAX™ (4×10^−3M), glutathione (3.3×10^−6M), and 1% penicillin/streptomycin/amphotericin B. By culturing the fibroblast cells at hyperconfluent density in this completely chemically defined medium causes them to enter a high synthetic phase with a slow-down in proliferation, leading to the production of a living tissue equivalent (LTE) consisting of multiple layers of fibroblasts within de novo 3D extracellular matrix (CDM) that is completely synthesized by the fibroblasts themselves.
Day 14 CDM samples were treated with cytochalsin B (10 μg/ml, Calbiochem), with the concentration of cytochalsin B reduced from 10 μg/ml to 0 μg/ml (none) over 5 days while at the same time switching the medium from CDM Medium to NbActive medium. […]

For experiment [3], the system named is HFFs. In words: Sox2 immunohistochemistry with or without Noggin. To be noted: inhibiting the BMP signaling pathway. The protocol:
This study was designed to evaluate the role of Noggin in the process of de-differentiation of HFFs towards NSLCs. HFFs were cultured and treated with cytochalasin B as described in Example III. After two days of treatment, cells were transfected by Nucleofection as described in Example II with the constructed vector Msi1/Ngn2. Briefly, after preparing the cells, they were mixed with 2 μg of total DNA (Msi1/Ngn2) and were co-transfect with MBD2 ([…]), by the Amaxa's Nucleofector™ according to the manufacturer's protocol. The samples were then transferred into a Laminin (10 μg/ml, Sigma) coated culture plate and cultured in the presence of Neural Proliferation Medium (NeuroCult™ proliferation Kit, StemCell Technologies) with recombinant hFGF (20 ng/ml, Peprotech), recombinant hEGF (20 ng/ml, Peprotech), and with or without the presence of Noggin (20 ng/ml, Peprotech). Samples were collected at different time points (1, 3, 4, 6, and 8 days) to analyze neuronal gene expression by RT-PCR and protein expression levels by immunohistochemistry.
Fluorescent imunohistochemical staining was performed on samples after 4 days of transfection as previously described in Example I. Transfected cells were stained and analyzed for expression of Sox2, the percentage of Sox2 was 33.3±1.00% in the presence of Noggin compared to 27.5±0.50% without the presence of noggin at day 4. […]

As to `C=C1[C@@H](C)[C@H]2[C@H](Cc3ccccc3)NC(=O)[C@]23OC(=O)/C=C/[C@H](O)CCC[C@@H](C)C/C=C/[C@H]3[C@@H]1O` [Cytochalasin B], in experiment [1], the effect on reprogramming result is “significantly enhanced reprogramming, but had no reprogramming effect on its own”. Moreover, the βIII-tubulin positive cells entry in experiment [2] is reported as “failed to detect”.

B1: Noggin: Noggin (20 ng/ml, Peprotech), inhibits the BMP signaling pathway (protein, UniProt Q13253 28-232, looked up)
Noggin: QHYLHIRPAPSDNLPLVDLIEHPDPIFDPKEKDLNETLLRSLLGGHYDPGFMATSPPEDRPGGGGGAAGGAEDLAELDQLLRQRPSGAMPSEIKGLEFSEGLAQGKKQRLSKKLRRKLQMWLWSQTFCPVLYAWNDLGSRFWPRYVKVGSCFSKRSCSVPEGMVCKPSKSVHLTVLRWRCQRRGGQRCGWIPIQYPIISECKCSC
With B1, the effect on reprogramming result in experiment [3] is “enhanced reprogramming, but had no reprogramming effect on its own”.
